In US11123337B2, “4-methylsulfonyl-substituted piperidine urea compounds” (MYOKARDIA, INC., priority 2015, dated 2021):

Target: bovine cardiac myosin (Bos taurus, UniProt Q9BE39)
Test: Myosin activation assay (PK/LDH-coupled ATPase, bovine cardiac myofibrils)
Type: biochemical
Conditions: AC20 = concentration at which total response is increased by twenty percent
How it was run: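 Values are the concentrations raising the ATPase rate by 20% or 50% over DMSO, from 10-point dose responses fitted with four parameters. Rate is NADH loss at 340 nm via PK/LDH coupling, read 15 min at room temperature, in pH 6.8 PIPES with 50 μM ATP. Bovine cardiac myofibrils were held at pCa ~6 or pCa 10.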

bovine cardiac myosin, sequence (Q9BE39 whole entry): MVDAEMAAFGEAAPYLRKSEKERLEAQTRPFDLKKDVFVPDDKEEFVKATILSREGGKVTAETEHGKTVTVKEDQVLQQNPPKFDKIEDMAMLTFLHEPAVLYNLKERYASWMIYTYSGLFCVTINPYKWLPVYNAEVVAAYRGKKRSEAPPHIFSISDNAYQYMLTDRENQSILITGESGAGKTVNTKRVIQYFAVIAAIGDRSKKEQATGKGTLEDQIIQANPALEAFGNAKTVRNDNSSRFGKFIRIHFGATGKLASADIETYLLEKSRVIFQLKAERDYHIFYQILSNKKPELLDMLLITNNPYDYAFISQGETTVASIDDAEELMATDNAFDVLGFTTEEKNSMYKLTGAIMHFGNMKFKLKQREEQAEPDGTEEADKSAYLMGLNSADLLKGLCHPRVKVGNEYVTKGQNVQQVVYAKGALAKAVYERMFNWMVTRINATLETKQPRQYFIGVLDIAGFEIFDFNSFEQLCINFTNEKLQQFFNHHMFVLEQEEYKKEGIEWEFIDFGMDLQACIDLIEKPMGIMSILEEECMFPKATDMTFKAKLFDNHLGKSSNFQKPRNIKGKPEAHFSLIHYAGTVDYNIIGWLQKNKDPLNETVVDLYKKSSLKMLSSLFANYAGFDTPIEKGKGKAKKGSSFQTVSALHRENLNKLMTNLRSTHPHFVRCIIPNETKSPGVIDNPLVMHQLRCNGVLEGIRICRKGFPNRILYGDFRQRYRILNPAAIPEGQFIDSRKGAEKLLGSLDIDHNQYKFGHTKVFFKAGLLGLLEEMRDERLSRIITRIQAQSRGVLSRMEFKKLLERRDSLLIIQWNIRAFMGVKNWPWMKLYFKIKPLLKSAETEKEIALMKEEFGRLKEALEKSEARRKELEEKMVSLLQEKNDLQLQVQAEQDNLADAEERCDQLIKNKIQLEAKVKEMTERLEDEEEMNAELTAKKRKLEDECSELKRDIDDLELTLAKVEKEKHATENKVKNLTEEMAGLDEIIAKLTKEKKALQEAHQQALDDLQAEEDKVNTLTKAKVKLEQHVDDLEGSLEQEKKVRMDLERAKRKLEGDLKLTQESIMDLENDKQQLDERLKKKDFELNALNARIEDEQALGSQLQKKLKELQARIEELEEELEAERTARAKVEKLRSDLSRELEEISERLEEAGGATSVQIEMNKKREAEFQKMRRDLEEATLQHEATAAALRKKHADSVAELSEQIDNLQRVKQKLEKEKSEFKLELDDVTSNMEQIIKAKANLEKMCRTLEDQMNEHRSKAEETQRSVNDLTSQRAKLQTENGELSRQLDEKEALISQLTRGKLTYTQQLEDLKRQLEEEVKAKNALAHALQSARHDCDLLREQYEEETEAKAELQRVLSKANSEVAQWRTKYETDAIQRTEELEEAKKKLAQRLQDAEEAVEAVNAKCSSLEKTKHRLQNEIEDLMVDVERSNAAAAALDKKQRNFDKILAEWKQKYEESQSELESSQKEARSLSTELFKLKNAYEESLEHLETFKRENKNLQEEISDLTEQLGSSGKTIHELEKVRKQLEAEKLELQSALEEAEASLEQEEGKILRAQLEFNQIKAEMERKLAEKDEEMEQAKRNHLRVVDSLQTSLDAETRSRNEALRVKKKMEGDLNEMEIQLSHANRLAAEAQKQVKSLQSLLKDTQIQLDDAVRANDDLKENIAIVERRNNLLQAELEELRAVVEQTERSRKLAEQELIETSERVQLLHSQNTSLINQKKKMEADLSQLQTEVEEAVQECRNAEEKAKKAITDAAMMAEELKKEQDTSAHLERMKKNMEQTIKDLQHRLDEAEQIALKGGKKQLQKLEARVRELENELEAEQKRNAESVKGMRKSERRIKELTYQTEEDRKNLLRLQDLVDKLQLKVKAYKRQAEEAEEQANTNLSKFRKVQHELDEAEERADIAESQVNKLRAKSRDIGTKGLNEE
bovine cardiac myosin, sequence (P85100 whole entry partner): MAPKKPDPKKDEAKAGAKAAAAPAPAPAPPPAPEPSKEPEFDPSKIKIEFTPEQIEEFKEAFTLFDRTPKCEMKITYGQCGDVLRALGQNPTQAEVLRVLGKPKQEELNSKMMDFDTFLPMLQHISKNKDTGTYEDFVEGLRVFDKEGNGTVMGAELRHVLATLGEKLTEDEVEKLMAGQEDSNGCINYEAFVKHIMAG
bovine cardiac myosin, sequence (Q3SZE5 whole entry partner): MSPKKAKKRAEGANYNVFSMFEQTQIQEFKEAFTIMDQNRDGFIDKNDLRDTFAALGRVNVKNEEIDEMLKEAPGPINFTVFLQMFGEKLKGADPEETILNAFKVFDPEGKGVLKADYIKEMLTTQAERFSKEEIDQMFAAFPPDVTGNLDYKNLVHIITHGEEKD

SMILES | Myosin Activation (AC20)
CC(C)(C1CCN(C(=O)Nc2cnoc2)CC1)S(=O)(=O)c1cccc(F)c1 [Compound 158, 4-(2-((3-fluorophenyl)sulfonyl)propan-2-yl)-N-(isoxazol-4-yl)piperidine-1-carboxamide] | +++ (+++ represents myosin activation value AC20 < 2 μM)
Cn1cc(S(=O)(=O)C(C)(C)C2CCN(C(=O)Nc3ccnnc3)CC2)cn1 [Compound 199, 4-(2-((1-methyl-1H-pyrazol-4-yl)sulfonyl)propan-2-yl)-N-(pyridazin-4-yl)piperidine-1-carboxamide] | + (+ represents myosin activation value AC20 > 5 μM)
Cc1ccc(NC(=O)N2CCC(C(C)(C)S(=O)(=O)c3cccc(F)c3)CC2)cn1 [Compound 162, 4-(2-((3-fluorophenyl)sulfonyl)propan-2-yl)-N-(6-methylpyridin-3-yl)piperidine-1-carboxamide] | + (+ represents myosin activation value AC20 > 5 μM)
CC(C)(C1CCN(C(=O)Nc2ccnnc2)CC1)S(=O)(=O)c1ccc(C#N)cc1 [Compound 180, 4-(2-((4-cyanophenyl)sulfonyl)propan-2-yl)-N-(pyridazin-4-yl)piperidine-1-carboxamide] | ++ (++ represents myosin activation value AC20 from 2 μM-5 μM)
Cn1nc(C(F)(F)F)cc1S(=O)(=O)[C@](C)(F)C1CCN(C(=O)Nc2ccnc(F)c2)CC1 [Compound 230, (S)-4-(1-fluoro-1-((1-methyl-3-(trifluoromethyl)-1H-pyrazol-5-yl)sulfonyl)ethyl)-N-(2-fluoropyridin-4-yl)piperidine-1-carboxamide] | + (+ represents myosin activation value AC20 > 5 μM)
Cc1cc(NC(=O)N2CCC(C(C)(C)S(=O)(=O)c3cn(C)nc3C(F)F)CC2)no1 [Compound 144, 4-(2-((3-(difluoromethyl)-1-methyl-1H-pyrazol-4-yl)sulfonyl)propan-2-yl)-N-(5-methylisoxazol-3-yl)piperidine-1-carboxamide] | + (+ represents myosin activation value AC20 > 5 μM)
O=C(Nc1ccnnc1)N1CCC(C(F)(F)S(=O)(=O)c2ccc(-n3cncn3)cc2)CC1 [Compound 64, 4-(((4-(1H-1,2,4-triazol-1-yl)phenyl)sulfonyl)difluoromethyl)-N-(pyridazin-4-yl)piperidine-1-carboxamide] | ++ (++ represents myosin activation value AC20 from 2 μM-5 μM)
CC(C)(C1CCN(C(=O)Nc2cnccn2)CC1)S(=O)(=O)c1cccc(F)c1 [Compound 131, 4-(2-((3-fluorophenyl)sulfonyl)propan-2-yl)-N-(pyrazin-2-yl)piperidine-1-carboxamide] | + (+ represents myosin activation value AC20 > 5 μM)
O=C(Nc1ccncc1)N1CCC(C2(S(=O)(=O)c3ccc(OC(F)(F)F)cc3)CC2)CC1 [Compound 206, N-(pyridin-4-yl)-4-(1-((4-(trifluoromethoxy)phenyl)sulfonyl)cyclopropyl)piperidine-1-carboxamide] | +++ (+++ represents myosin activation value AC20 < 2 μM)
Cc1cnccc1S(=O)(=O)C(F)(F)C1CCN(C(=O)Nc2ccnnc2)CC1 [Compound 70, 4-(difluoro((3-methylpyridin-4-yl)sulfonyl)methyl)-N-(pyridazin-4-yl)piperidine-1-carboxamide] | ++ (++ represents myosin activation value AC20 from 2 μM-5 μM)
Cn1cc(S(=O)(=O)[C@@](C)(F)C2CCN(C(=O)Nc3ccc(C(N)=O)nc3)CC2)c(C(F)F)n1 [Compound 300, (R)-5-(4-(1-((3-(difluoromethyl)-1-methyl-1H-pyrazol-4-yl)sulfonyl)-1-fluoroethyl)piperidine-1-carboxamido)picolinamide] | ++ (++ represents myosin activation value AC20 from 2 μM-5 μM)
Cn1nc(C(C)(C)C)cc1S(=O)(=O)C(F)(F)C1CCN(C(=O)Nc2ccnnc2)CC1 [Compound 89, 4-(((3-(tert-butyl)-1-methyl-1H-pyrazol-5-yl)sulfonyl)difluoromethyl)-N-(pyridazin-4-yl)piperidine-1-carboxamide] | + (+ represents myosin activation value AC20 > 5 μM)
CC(F)(C1CCN(C(=O)Nc2cncc(F)c2)CC1)S(=O)(=O)c1cccc(F)c1 (stereo not shown) [Compound 223, 4-(1-fluoro-1-((3-fluorophenyl)sulfonyl)ethyl)-N-(5-fluoropyridin-3-yl)piperidine-1-carboxamide] | + (+ represents myosin activation value AC20 > 5 μM)
CC(C)(C1CCN(C(=O)Nc2cc[nH]n2)CC1)S(=O)(=O)c1cccc(F)c1 [Compound 147, 4-(2-((3-fluorophenyl)sulfonyl)propan-2-yl)-N-(1H-pyrazol-3-yl)piperidine-1-carboxamide] | + (+ represents myosin activation value AC20 > 5 μM)
CC(F)(C1CCN(C(=O)Nc2nnco2)CC1)S(=O)(=O)c1cccc(F)c1 (stereo not shown) [Compound 222, 4-(1-fluoro-1-((3-fluorophenyl)sulfonyl)ethyl)-N-(1,3,4-oxadiazol-2-yl)piperidine-1-carboxamide] | + (+ represents myosin activation value AC20 > 5 μM)
Cc1ccc(S(=O)(=O)CC2CCN(C(=O)Nc3ccncc3)CC2)cc1 [Compound 38, N-(pyridin-4-yl)-4-(tosylmethyl)piperidine-1-carboxamide] | + (+ represents myosin activation value AC20 > 5 μM)
O=C(Nc1ccnnc1)N1CCC(C(F)(F)S(=O)(=O)c2ccc(C3CC3)nc2)CC1 [Compound 60, 4-(((6-cyclopropylpyridin-3-yl)sulfonyl)difluoromethyl)-N-(pyridazin-4-yl)piperidine-1-carboxamide] | ++ (++ represents myosin activation value AC20 from 2 μM-5 μM)
Cn1cc(S(=O)(=O)[C@@](C)(F)C2CCN(C(=O)Nc3ccc(C(F)(F)F)nc3)CC2)c(C(F)F)n1 [Compound 261, (R)-4-(1-((3-(difluoromethyl)-1-methyl-1H-pyrazol-4-yl)sulfonyl)-1-fluoroethyl)-N-(6-(trifluoromethyl)pyridin-3-yl)piperidine-1-carboxamide] | + (+ represents myosin activation value AC20 > 5 μM)
CC(C)(C1CCN(C(=O)Nc2ccncc2F)CC1)S(=O)(=O)c1cccc(F)c1 [Compound 177, 4-(2-((3-fluorophenyl)sulfonyl)propan-2-yl)-N-(3-fluoropyridin-4-yl)piperidine-1-carboxamide] | + (+ represents myosin activation value AC20 > 5 μM)
O=C(Nc1ccnnc1)N1CCC(C(F)(F)S(=O)(=O)c2cccc(C(F)(F)F)c2)CC1 [Compound 49, 4-(difluoro((3-(trifluoromethyl)phenyl)sulfonyl)methyl)-N-(pyridazin-4-yl)piperidine-1-carboxamide] | ++ (++ represents myosin activation value AC20 from 2 μM-5 μM)
CC(C)(C1CCN(C(=O)Nc2ccns2)CC1)S(=O)(=O)c1cc(F)cc(F)c1 [Compound 210, 4-(2-((3,5-difluorophenyl)sulfonyl)propan-2-yl)-N-(isothiazol-5-yl)piperidine-1-carboxamide] | +++ (+++ represents myosin activation value AC20 < 2 μM)
CC(F)(C1CCN(C(=O)Nc2ccnc(F)c2)CC1)S(=O)(=O)c1cccc(F)c1 (stereo not shown) [Compound 236, 4-(1-fluoro-1-((3-fluorophenyl)sulfonyl)ethyl)-N-(2-fluoropyridin-4-yl)piperidine-1-carboxamide] | ++ (++ represents myosin activation value AC20 from 2 μM-5 μM)
Cn1nccc1S(=O)(=O)C(C)(C)C1CCN(C(=O)Nc2ccnc(F)c2)CC1 [Compound 134, N-(2-fluoropyridin-4-yl)-4-(2-((1-methyl-1H-pyrazol-5-yl)sulfonyl)propan-2-yl)piperidine-1-carboxamide] | ++ (++ represents myosin activation value AC20 from 2 μM-5 μM)
Cc1cnc(NC(=O)N2CCC(C(C)(C)S(=O)(=O)c3cccc(F)c3)CC2)cn1 [Compound 125, 4-(2-((3-fluorophenyl)sulfonyl)propan-2-yl)-N-(5-methylpyrazin-2-yl)piperidine-1-carboxamide] | + (+ represents myosin activation value AC20 > 5 μM)
Cc1cc(C#N)ccc1S(=O)(=O)C(C)(C)C1CCN(C(=O)Nc2ccnnc2)CC1 [Compound 196, 4-(2-((4-cyano-2-methylphenyl)sulfonyl)propan-2-yl)-N-(pyridazin-4-yl)piperidine-1-carboxamide] | ++ (++ represents myosin activation value AC20 from 2 μM-5 μM)
O=C(Nc1ccnnc1)N1CCC(C(F)(F)S(=O)(=O)c2cc(OC(F)(F)F)ccc2Cl)CC1 [Compound 74, 4-(((2-chloro-5-(trifluoromethoxy)phenyl)sulfonyl)difluoromethyl)-N-(pyridazin-4-yl)piperidine-1-carboxamide] | +++ (+++ represents myosin activation value AC20 < 2 μM)
COc1ccccc1S(=O)(=O)C(C)(C)C1CCN(C(=O)Nc2ccncc2)CC1 [Compound 216, 4-(2-((2-methoxyphenyl)sulfonyl)propan-2-yl)-N-(pyridin-4-yl)piperidine-1-carboxamide] | +++ (+++ represents myosin activation value AC20 < 2 μM)
Cn1cc(S(=O)(=O)C(C)(C)C2CCN(C(=O)Nc3ccnnc3)CC2)c(C(F)F)n1 [Compound 168, 4-(2-((3-(difluoromethyl)-1-methyl-1H-pyrazol-4-yl)sulfonyl)propan-2-yl)-N-(pyridazin-4-yl)piperidine-1-carboxamide] | +++ (+++ represents myosin activation value AC20 < 2 μM)
